Assay results taken from the kinase profiling compilation of Christmann-Franck et al. (2016).

What was measured:
Experiment in all cases: radiometric filter-binding kinase assay
FLT1 (human) = FLT1 (human) (UniProt P17948)
PIM1 (human) = PIM1 (human) (UniProt P11309)
HIPK2 (human) = HIPK2 (human) (UniProt Q9H2X6)
DYRK2 (human) = DYRK2 (human) (UniProt Q92630)
EPHB1 (human) = EPHB1 (human) (UniProt P54762)
EPHB4 (human) = EPHB4 (human) (UniProt P54760)
MARK3 (human) = MARK3 (human) (UniProt P27448)
PRKCA (human) = PRKCA (human) (UniProt P17252)
GCK (human) = GCK (human) (UniProt Q12851)
SYK (human) = SYK (human) (UniProt P43405)
MAPK9 (human) = MAPK9 (human) (UniProt P45984)
MAPK10 (human) = MAPK10 (human) (UniProt P53779)
MAPK8 (human) = MAPK8 (human) (UniProt P45983)
Chain of MAPK8 (human) (P45983 whole entry, looked up): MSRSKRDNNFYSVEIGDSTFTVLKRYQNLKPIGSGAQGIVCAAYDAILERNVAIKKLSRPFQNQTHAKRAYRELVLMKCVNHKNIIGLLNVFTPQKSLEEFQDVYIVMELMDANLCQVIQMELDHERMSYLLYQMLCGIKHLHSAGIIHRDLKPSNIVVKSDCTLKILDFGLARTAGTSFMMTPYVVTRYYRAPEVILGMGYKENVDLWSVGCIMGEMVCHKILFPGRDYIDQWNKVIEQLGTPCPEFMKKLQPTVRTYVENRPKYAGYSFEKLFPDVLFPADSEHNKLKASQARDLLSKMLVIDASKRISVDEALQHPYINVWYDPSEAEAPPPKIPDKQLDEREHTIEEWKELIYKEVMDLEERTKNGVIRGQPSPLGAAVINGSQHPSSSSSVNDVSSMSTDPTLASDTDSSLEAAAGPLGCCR

MAP2K1 (human) = MAP2K1 (human) (UniProt Q02750)
[1] = tested on: RPS6KB1 (human), P23443 [T412E]
BRSK1 (human) = BRSK1 (human) (UniProt Q8TDC3)
Chain of BRSK1 (human) (Q8TDC3 whole entry, looked up): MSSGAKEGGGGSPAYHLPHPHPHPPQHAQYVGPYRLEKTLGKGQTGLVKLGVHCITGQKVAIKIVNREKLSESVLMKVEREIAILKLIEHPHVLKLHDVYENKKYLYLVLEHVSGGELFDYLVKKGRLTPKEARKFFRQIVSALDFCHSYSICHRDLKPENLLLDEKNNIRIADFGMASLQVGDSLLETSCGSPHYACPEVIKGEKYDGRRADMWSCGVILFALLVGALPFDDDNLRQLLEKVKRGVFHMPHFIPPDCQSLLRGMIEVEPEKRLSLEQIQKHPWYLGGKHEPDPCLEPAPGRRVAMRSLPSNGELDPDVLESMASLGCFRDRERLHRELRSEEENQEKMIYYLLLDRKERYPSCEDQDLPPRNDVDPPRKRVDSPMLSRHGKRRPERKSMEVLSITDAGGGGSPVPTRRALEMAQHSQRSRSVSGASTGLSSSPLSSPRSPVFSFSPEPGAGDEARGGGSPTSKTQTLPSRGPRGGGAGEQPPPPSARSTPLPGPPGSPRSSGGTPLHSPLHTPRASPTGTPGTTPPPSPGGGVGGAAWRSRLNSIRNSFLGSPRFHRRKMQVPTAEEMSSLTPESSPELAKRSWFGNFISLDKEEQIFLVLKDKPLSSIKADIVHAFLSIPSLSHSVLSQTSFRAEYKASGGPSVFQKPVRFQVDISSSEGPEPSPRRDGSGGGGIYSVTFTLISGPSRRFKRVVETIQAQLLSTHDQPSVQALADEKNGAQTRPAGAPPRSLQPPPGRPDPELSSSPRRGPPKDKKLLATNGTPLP

YES1 (human) = YES1 (human) (UniProt P07947)
BRSK2 (human) = BRSK2 (human) (UniProt Q8IWQ3)
MAPK11 (human) = MAPK11 (human) (UniProt Q15759)
BTK (human) = BTK (human) (UniProt Q06187)
Chain of BTK (human) (Q06187 whole entry, looked up): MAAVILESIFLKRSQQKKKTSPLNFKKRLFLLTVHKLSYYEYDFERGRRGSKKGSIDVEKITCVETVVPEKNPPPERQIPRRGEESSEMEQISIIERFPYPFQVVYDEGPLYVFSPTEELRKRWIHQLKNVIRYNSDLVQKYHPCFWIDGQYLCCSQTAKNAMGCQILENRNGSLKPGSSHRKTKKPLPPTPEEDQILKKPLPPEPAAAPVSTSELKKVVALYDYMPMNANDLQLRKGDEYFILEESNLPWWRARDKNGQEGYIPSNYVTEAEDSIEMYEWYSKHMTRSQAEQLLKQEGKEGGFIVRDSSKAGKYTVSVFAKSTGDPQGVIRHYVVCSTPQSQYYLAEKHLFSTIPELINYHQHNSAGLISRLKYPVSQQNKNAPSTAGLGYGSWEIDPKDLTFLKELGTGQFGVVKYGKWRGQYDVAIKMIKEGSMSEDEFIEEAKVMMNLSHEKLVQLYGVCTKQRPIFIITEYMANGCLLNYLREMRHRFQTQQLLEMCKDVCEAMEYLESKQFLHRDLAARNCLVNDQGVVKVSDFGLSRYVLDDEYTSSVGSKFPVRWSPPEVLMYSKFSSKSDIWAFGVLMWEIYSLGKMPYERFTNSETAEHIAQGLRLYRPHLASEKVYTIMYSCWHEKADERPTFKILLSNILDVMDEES

MAP3K5 (human) = MAP3K5 (human) (UniProt Q99683)
[2] = tested on: AKT1 (human), P31749 [S473D]
HIPK1 (human) = HIPK1 (human) (UniProt Q86Z02)
AURKA (human) = AURKA (human) (UniProt O14965)
INSR (human) = INSR (human) (UniProt P06213)
STK3 (human) = STK3 (human) (UniProt Q13188)
DYRK3 (human) = DYRK3 (human) (UniProt O43781)
EPHB2 (human) = EPHB2 (human) (UniProt P29323)
Chain of EPHB2 (human) (P29323 whole entry, looked up): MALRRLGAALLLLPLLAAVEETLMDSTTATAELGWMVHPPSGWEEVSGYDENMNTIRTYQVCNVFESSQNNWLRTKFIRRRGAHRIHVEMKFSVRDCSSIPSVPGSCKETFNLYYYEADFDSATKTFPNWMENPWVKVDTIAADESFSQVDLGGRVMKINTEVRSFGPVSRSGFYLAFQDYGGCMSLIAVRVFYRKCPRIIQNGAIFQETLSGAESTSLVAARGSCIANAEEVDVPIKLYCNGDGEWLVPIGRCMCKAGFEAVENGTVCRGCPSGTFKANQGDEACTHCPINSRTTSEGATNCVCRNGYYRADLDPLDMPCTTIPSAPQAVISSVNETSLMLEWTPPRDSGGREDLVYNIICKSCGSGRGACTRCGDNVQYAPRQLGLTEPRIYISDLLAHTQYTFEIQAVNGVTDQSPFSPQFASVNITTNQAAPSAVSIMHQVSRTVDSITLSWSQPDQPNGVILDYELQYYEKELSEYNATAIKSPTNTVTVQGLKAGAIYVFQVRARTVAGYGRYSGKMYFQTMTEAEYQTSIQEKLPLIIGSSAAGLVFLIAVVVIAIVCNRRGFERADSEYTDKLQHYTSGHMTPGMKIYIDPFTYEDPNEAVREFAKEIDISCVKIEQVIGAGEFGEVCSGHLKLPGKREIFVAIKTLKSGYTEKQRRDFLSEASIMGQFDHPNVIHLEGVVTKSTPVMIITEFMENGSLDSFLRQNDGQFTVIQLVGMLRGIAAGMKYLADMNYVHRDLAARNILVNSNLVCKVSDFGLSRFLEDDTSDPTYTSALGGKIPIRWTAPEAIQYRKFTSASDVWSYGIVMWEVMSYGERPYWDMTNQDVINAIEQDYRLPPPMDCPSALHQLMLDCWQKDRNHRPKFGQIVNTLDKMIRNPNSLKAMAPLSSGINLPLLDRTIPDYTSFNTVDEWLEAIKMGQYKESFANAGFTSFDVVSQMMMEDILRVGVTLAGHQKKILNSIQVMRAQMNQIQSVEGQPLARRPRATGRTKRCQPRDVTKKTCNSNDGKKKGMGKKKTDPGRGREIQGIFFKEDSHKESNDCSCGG

TAOK1 (human) = TAOK1 (human) (UniProt Q7L7X3)
MAPKAPK5 (human) = MAPKAPK5 (human) (UniProt Q8IW41)
MAP3K11 (human) = MAP3K11 (human) (UniProt Q16584)
JAK2 JH1 JH2 (human) = JAK2 JH1 JH2 (human) (UniProt O60674)
EPHA2 (human) = EPHA2 (human) (UniProt P29317)
MAP3K1 (human) = MAP3K1 (human) (UniProt Q13233)
CaMK1 (human) = CaMK1 (human) (UniProt Q14012)
TBK1 (human) = TBK1 (human) (UniProt Q9UHD2)

Chain of HIPK2 (human) (Q9H2X6 whole entry, looked up): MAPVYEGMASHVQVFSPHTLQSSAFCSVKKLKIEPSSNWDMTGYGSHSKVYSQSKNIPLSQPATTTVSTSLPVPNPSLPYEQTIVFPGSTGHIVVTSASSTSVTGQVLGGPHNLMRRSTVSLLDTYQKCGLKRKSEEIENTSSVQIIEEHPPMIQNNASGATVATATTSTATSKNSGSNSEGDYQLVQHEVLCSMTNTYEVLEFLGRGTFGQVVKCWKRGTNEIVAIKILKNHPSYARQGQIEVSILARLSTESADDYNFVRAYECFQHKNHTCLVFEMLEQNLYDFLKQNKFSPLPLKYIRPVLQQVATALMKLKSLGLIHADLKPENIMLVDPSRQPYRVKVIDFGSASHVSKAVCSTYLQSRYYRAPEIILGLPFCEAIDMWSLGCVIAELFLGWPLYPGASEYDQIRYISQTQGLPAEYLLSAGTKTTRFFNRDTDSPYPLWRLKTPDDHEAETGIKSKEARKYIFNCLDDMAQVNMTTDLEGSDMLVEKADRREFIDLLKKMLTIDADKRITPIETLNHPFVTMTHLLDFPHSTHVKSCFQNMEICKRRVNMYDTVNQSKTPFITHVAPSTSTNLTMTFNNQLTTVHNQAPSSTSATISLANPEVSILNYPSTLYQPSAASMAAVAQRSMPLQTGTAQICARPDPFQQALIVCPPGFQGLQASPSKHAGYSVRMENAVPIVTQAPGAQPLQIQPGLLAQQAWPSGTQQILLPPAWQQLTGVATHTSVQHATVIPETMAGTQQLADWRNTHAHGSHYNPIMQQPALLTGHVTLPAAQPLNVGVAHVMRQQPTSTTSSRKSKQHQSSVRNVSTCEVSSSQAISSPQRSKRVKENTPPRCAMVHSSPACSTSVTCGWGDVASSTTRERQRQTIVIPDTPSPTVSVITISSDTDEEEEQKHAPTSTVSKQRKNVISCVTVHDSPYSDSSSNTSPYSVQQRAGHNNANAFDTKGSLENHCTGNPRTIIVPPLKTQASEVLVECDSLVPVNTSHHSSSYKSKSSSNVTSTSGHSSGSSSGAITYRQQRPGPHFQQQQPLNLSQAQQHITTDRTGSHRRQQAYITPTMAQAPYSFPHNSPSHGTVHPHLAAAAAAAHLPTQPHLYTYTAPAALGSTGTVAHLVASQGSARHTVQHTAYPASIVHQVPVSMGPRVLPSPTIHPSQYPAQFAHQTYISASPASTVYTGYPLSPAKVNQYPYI
Chain of PIM1 (human) (P11309 whole entry, looked up): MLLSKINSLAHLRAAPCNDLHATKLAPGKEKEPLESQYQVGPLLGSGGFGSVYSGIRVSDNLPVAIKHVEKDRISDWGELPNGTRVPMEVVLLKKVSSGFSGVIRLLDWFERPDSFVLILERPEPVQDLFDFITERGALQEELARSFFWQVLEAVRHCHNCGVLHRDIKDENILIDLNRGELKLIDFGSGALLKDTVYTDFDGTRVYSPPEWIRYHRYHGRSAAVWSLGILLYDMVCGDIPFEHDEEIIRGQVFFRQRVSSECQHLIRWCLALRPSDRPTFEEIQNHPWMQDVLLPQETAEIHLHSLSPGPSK
Chain of DYRK2 (human) (Q92630 whole entry, looked up): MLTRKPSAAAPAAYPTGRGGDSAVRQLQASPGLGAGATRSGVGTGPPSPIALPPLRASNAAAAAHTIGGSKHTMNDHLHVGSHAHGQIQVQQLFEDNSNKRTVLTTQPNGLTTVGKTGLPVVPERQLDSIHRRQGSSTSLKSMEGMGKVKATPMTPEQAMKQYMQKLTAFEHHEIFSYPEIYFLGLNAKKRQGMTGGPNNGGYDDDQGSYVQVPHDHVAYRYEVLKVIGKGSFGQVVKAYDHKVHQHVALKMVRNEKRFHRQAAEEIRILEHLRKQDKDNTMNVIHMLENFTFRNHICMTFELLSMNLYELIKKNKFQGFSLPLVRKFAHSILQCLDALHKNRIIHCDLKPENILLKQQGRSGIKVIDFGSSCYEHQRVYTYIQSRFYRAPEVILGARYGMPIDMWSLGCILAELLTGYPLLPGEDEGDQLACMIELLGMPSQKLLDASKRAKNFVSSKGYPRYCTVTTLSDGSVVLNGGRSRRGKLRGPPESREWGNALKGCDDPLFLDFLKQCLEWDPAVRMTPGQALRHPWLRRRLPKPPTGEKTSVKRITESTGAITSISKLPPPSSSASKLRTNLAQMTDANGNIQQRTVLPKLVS

c1ccc2c(-c3cnn4cc(-c5ccc(N6CCNCC6)cc5)cnc34)ccnc2c1
residual activity (FLT1 (human); compound 0.1 µM): 48% | residual activity (FLT1 (human); compound 10.0 µM): 0% | residual activity (PIM1 (human); compound 0.1 µM): 83% | residual activity (PIM1 (human); compound 1.0 µM): 83% | residual activity (PIM1 (human); compound 10.0 µM): 82% | residual activity (HIPK2 (human); compound 0.1 µM): 93% | residual activity (HIPK2 (human); compound 1.0 µM): 91% | residual activity (HIPK2 (human); compound 10.0 µM): 56% | residual activity (DYRK2 (human); compound 0.1 µM): 108% | residual activity (DYRK2 (human); compound 1.0 µM): 107% | residual activity (DYRK2 (human); compound 10.0 µM): 77% | residual activity (EPHB1 (human); compound 0.1 µM): 117% | residual activity (EPHB1 (human); compound 10.0 µM): 100% | residual activity (EPHB4 (human); compound 0.1 µM): 96% | residual activity (EPHB4 (human); compound 1.0 µM): 89% | residual activity (EPHB4 (human); compound 10.0 µM): 46% | residual activity (MARK3 (human); compound 0.1 µM): 78% | residual activity (MARK3 (human); compound 1.0 µM): 34% | residual activity (MARK3 (human); compound 10.0 µM): 11% | residual activity (PRKCA (human); compound 0.1 µM): 92% | residual activity (PRKCA (human); compound 1.0 µM): 96% | residual activity (PRKCA (human); compound 10.0 µM): 88% | residual activity (GCK (human); compound 0.1 µM): 37% | residual activity (GCK (human); compound 1.0 µM): 11% | residual activity (GCK (human); compound 10.0 µM): 3% | residual activity (SYK (human); compound 0.1 µM): 82% | residual activity (SYK (human); compound 1.0 µM): 80% | residual activity (SYK (human); compound 10.0 µM): 36% | residual activity (MAPK9 (human); compound 0.1 µM): 88% | residual activity (MAPK9 (human); compound 1.0 µM): 103% | residual activity (MAPK9 (human); compound 10.0 µM): 83% | residual activity (MAPK10 (human); compound 0.1 µM): 98% | residual activity (MAPK10 (human); compound 1.0 µM): 97% | residual activity (MAPK10 (human); compound 10.0 µM): 94% | residual activity (MAPK8 (human); compound 0.1 µM): 89% | residual activity (MAPK8 (human); compound 1.0 µM): 101% | residual activity (MAPK8 (human); compound 10.0 µM): 78% | residual activity (MAP2K1 (human); compound 0.1 µM): 98% | residual activity (MAP2K1 (human); compound 1.0 µM): 93% | residual activity (MAP2K1 (human); compound 10.0 µM): 67% | residual activity ([1]; compound 1.0 µM): 92% | residual activity ([1]; compound 10.0 µM): 84% | residual activity (BRSK1 (human); compound 0.1 µM): 88% | residual activity (BRSK1 (human); compound 1.0 µM): 85% | residual activity (BRSK1 (human); compound 10.0 µM): 57% | residual activity (YES1 (human); compound 0.1 µM): 73% | residual activity (YES1 (human); compound 1.0 µM): 21% | residual activity (YES1 (human); compound 10.0 µM): 7% | residual activity (BRSK2 (human); compound 0.1 µM): 88% | residual activity (BRSK2 (human); compound 1.0 µM): 68% | residual activity (BRSK2 (human); compound 10.0 µM): 20% | residual activity (MAPK11 (human); compound 1.0 µM): 104% | residual activity (MAPK11 (human); compound 10.0 µM): 96% | residual activity (BTK (human); compound 0.1 µM): 111% | residual activity (BTK (human); compound 1.0 µM): 94% | residual activity (BTK (human); compound 10.0 µM): 52% | residual activity (MAP3K5 (human); compound 0.1 µM): 93% | residual activity (MAP3K5 (human); compound 1.0 µM): 90% | residual activity (MAP3K5 (human); compound 10.0 µM): 91% | residual activity ([2]; compound 0.1 µM): 102% | residual activity ([2]; compound 1.0 µM): 103% | residual activity (HIPK1 (human); compound 0.1 µM): 97% | residual activity (HIPK1 (human); compound 1.0 µM): 99% | residual activity (HIPK1 (human); compound 10.0 µM): 85% | residual activity (AURKA (human); compound 0.1 µM): 100% | residual activity (AURKA (human); compound 1.0 µM): 91% | residual activity (AURKA (human); compound 10.0 µM): 56% | residual activity (INSR (human); compound 0.1 µM): 105% | residual activity (INSR (human); compound 1.0 µM): 107% | residual activity (INSR (human); compound 10.0 µM): 93% | residual activity (STK3 (human); compound 0.1 µM): 102% | residual activity (STK3 (human); compound 1.0 µM): 104% | residual activity (STK3 (human); compound 10.0 µM): 76% | residual activity (DYRK3 (human); compound 0.1 µM): 86% | residual activity (DYRK3 (human); compound 1.0 µM): 89% | residual activity (EPHB2 (human); compound 0.1 µM): 108% | residual activity (EPHB2 (human); compound 1.0 µM): 80% | residual activity (EPHB2 (human); compound 10.0 µM): 37% | residual activity (TAOK1 (human); compound 0.1 µM): 102% | residual activity (TAOK1 (human); compound 1.0 µM): 110% | residual activity (TAOK1 (human); compound 10.0 µM): 79% | residual activity (MAPKAPK5 (human); compound 0.1 µM): 89% | residual activity (MAPKAPK5 (human); compound 1.0 µM): 100% | residual activity (MAPKAPK5 (human); compound 10.0 µM): 60% | residual activity (MAP3K11 (human); compound 0.1 µM): 86% | residual activity (MAP3K11 (human); compound 1.0 µM): 33% | residual activity (MAP3K11 (human); compound 10.0 µM): 8% | residual activity (JAK2 JH1 JH2 (human); compound 0.1 µM): 100% | residual activity (JAK2 JH1 JH2 (human); compound 1.0 µM): 104% | residual activity (JAK2 JH1 JH2 (human); compound 10.0 µM): 79% | residual activity (EPHA2 (human); compound 0.1 µM): 81% | residual activity (EPHA2 (human); compound 1.0 µM): 81% | residual activity (EPHA2 (human); compound 10.0 µM): 50% | residual activity (MAP3K1 (human); compound 0.1 µM): 90% | residual activity (MAP3K1 (human); compound 1.0 µM): 83% | residual activity (MAP3K1 (human); compound 10.0 µM): 60% | residual activity (CaMK1 (human); compound 0.1 µM): 86% | residual activity (CaMK1 (human); compound 1.0 µM): 85% | residual activity (CaMK1 (human); compound 10.0 µM): 45% | residual activity (TBK1 (human); compound 0.1 µM): 74% | residual activity (TBK1 (human); compound 1.0 µM): 62% | residual activity (TBK1 (human); compound 10.0 µM): 26%
